Entries after “also recorded” stand apart in the source; their conditions may differ. No end group written: not given here.
What was measured:
[1] = tested on: murine dextran sodium sulfate (DSS)-induced colitis; test: Dextran sodium sulfate (DSS)-induced colitis in mice; assay type: in vivo, C57BL6 mice
Protocol: (§1) Inbred C57BL6 mice, 8 to 12 weeks old, were purchased from Charles River Breeding Laboratories (Calco, Italy). Experiments were performed following protocols approved by the institutional animal committee and in accordance with European Economic Community Council Directive as well as institutional animal care and use guidelines.
DSS is a water soluble, negatively charged sulfated polysaccharide with a highly variable molecular weight ranging from 5 to 1400 kDa. Murine colitis results from administration of 40-50 kDa DSS added to drinking water. […] We have added 40-50 kDa DSS to sterilized drinking water at 3% for a period of 6 days to induce acute colitis. Concomitantly, Tα1 at 200 μg/kg was intraperitoneally injected daily, as illustrated in FIG. 1A. Control mice receive vehicle alone. Surviving mice were sacrificed at 10 days after the initiation of colitis.
(§2) In both models, animals were monitored daily for appearance of diarrhea, fecal blood, loss of body weight and survival. At the end of the experiment, surviving mice were sacrificed, the colon was excised, and evaluated for macroscopic damage and local immune parameters
(§3) Freshly isolated colons were fixed in formalin and embedded in paraffin. H&E staining was performed using a standard protocol. For the quantitative histological analysis, five criteria were used to grade each section of the intestine: (i) severity of inflammation, (ii) percent of area affected by inflammation, (iii) degree of hyperplasia, (iv) depth of the lesion, and (v) ulceration.
The levels of cytokines in the colon homogenates were determined by specific ELISA (R&D Systems).
(§4) Student's t-test, one- or two-way ANOVA with Bonferroni post-hoc test were used to determine the statistical significance. Significance was defined as p<0.05. Data are pooled results (mean±SEM) or representative images from three experiments.

B16 melanoma = test: Tumor challenge with B16 melanoma under anti-CTLA-4 mAb; assay type: in vivo, mice; details: 100 μg anti-CTLA-4 mAb days 0, 6, 10 with Tα1 200 μg/kg i.p.; FIG. 2E
Protocol: B16-F0 (ATCC® CRL-6322™ were cultured in RPMI Medium1640 (Gibco, Life Technologies, USA) containing 10% FBS (Gibco, USA), 100 U/mL penicillin, and 100 μg/mL streptomycin, at 37° C. in a humidified atmosphere of 5% CO2. 2×10^5 B16 tumor cells were subcutaneously injected into the right flanks of the mice. The mice were injected intraperitoneally with 100 μg of anti-CTLA-4 mAb, at 0, 6, and 10 days post-tumor implantation and concomitantly with Tα1 at 200 μg/kg intraperitoneally. Tumor size was measured with a caliper and calculated as described (Wang et al., 2019).

[2] = tested on: murine model of checkpoint inhibitor-mediated colitis (CIC); test: Checkpoint inhibitor-mediated colitis (CIC) model (DSS + anti-CTLA-4 mAb) in mice; assay type: in vivo, C57BL6 mice
Protocol: as §1
The mice received 3% DSS in their drinking water for 8 days and 100 μg of anti-CTLA-4 mAb (BioXcell, USA) or isotype control antibody intraperitoneally at the beginning of the experiment (day 0) and 4 days after (day +4). Surviving mice were sacrificed at 16 days. Tα1 at 200 μg/kg was intraperitoneally injected every other day, as illustrated in FIG. 2A.
as §2, §3, §4

[3] = steroid and infliximab refractory cases; recent reports; cited from earlier work
[4] = ELISA of colon homogenates, FIG. 1F

Substance | loss of body weight ([1]; 3% DSS 6 days, Tα1 200 μg/kg intraperitoneally daily, FIG. 1B) | production of IL-10 in the colon ([1]; ELISA of colon homogenates, FIG. 1E) | production of pro-inflammatory cytokine IL-1S [1, 4] | production of pro-inflammatory cytokine IL-17A [1, 4] | expression of IDO1 in the colon ([1]; RT-PCR, at sacrifice, FIG. 1E) | survival of mice ([1]; Tα1 200 μg/kg i.p. daily, FIG. 1C) | colon histopathology ([1]; Tα1 200 μg/kg i.p. daily, at sacrifice, FIG. 1D) | growth kinetics of B16 melanoma tumors / antitumoral efficacy afforded by anti-CTLA-4 mAb (B16 melanoma) | loss of body weight ([2]; CIC model (3% DSS 8 days + anti-CTLA-4 mAb), Tα1 200 μg/kg i.p. every other day, FIG. 2B) | survival of mice ([2]; CIC model, Tα1 200 μg/kg i.p. every other day, FIG. 2C) | architecture structure of the colon in surviving mice ([2]; CIC model, compared to untreated animals, FIG. 2D) | mice surviving at 16 days post initiation of colitis ([2]; CIC model, time at which untreated mice have all died, FIG. 2C) | efficacy in refractory CIC [3]
Thymosin alpha 1 (Ac-SDAAVDTSSEITTKDLKEKKEVVEEAEN; UniProt P06454 2-29, looked up) [Tα1, naturally-occurring polypeptide of 28 amino acid; from CRIBI Biotechnology, supplied as purified sterile, lyophilized, acetylated polypeptide] | prevented the loss of body weight | induced | decreased the production | decreased the production | induced the expression of IDO1 | increased survival of mice | ameliorated colon histopathology | does not affect the antitumoral efficacy; also recorded: did not affect the growth kinetics of the tumors | not significantly prevented | significantly increased the survival of mice | recovery of the normal architecture structure of the colon | majority of mice surviving | 
Vedolizumab: therapy reported as more gut specific and efficacious in steroid and infliximab refractory checkpoint inhibitor colitis |  |  |  |  |  |  |  |  |  |  |  |  | efficacious in steroid and infliximab refractory cases
